{
  "source": "ChEMBL document CHEMBL4130638",
  "about": "“Discovery of the Polyamine Conjugate with Benzo[ cd]indol-2(1 H)-one as a Lysosome-Targeted Antimetastatic Agent” (J Med Chem, 2018)",
  "key": {"[1]": {"experiment": "Drug uptake in human HCT116 cells assessed as PAT-mediated drug internalization at 2.5 to 7.5 uM after 24 hrs in presence of spermidine by high content screening analysis", "type": "ADME, cell-based"}, "HCT-116 [2]": {"system": "HCT-116", "experiment": "Upregulation of cleaved caspase-8 protein expression in human HCT116 cells up to 10 uM after 24 hrs in presence of autophagy inhibitor 3-MA by Western blot method", "type": "functional, cell-based"}, "CT26": {"system": "CT26", "experiment": "Induction of apoptosis in mouse CT26 cells assessed as late apoptotic cells at 10 uM after 24 hrs by annexin V-FITC/propidium iodide staining based flow cytometry (reference value: 2.26%)", "type": "functional"}, "[3]": {"experiment": "Drug uptake in lysosomes isolated from human HCT116 cells at 10 uM after 8 hrs by Lyso-tracker staining based confocal microscopic method", "type": "ADME, subcellular, Lysosome", "conditions": "hct-116, 8 h"}, "HCT-116 [4]": {"system": "HCT-116", "experiment": "Downregulation of Bcl2 protein expression in human HCT116 cells up to 10 uM after 24 hrs in presence of autophagy inhibitor 3-MA by Western blot method", "type": "functional, cell-based"}},
  "note": "Calls of active or inactive are those of the source. No cut-off for these calls is given here.",
  "data": [
    {"smiles": "Cl.Cl.Cl.NCCCCNCCCCNCCCCN1C(=O)c2cccc3cccc1c23", "values": [
      {"measurement": "Drug uptake", "setting": "[1]", "result": "Not Active"},
      {"measurement": "Activity", "setting": "HCT-116 [2]", "result": "inactive"},
      {"measurement": "Activity", "setting": "CT26", "result": 23.22, "unit": "%"},
      {"measurement": "Drug uptake", "setting": "[3]", "result": "Active"},
      {"measurement": "Activity", "setting": "HCT-116 [4]", "result": "inactive"}
    ]}
  ]
}
